Assays:
[1] = system: mice; conditions: cited from earlier work
[2] = system: human leukemia cancer cells (ATCC JURK); test: Cytotoxicity assay: growth inhibition of Jurkat cells (MTS/PMS); format: cell-based; conditions: approximately 48 hours, test concentration not given
Procedure: The activity against leukemia cancer cells of the compounds (as earlier reported) was realized by the following procedure which determines the inhibitory effect of test samples on the growth of human leukemia cancer cells (ATCC JURK). The Jurkat cells are grown in RPMI 1640 media+10% Fetal bovine serum+1% Antibiotic/Antimycotic+1% of HEPES Buffer (1M)+1% Sodium Purivate (100 mM)+2.5% D-(+) Glucose Solution for approximately 48 hours at 37° C./5% CO2 […] compound.
Growth/Non-Growth of the cells (e.g., cell density) is determined using Promega's MTS/PMS assay system. MTS (3-(4,5-dimethylthiazol-2-yl)-5-(3-carboxymethoxyphenyl)-2-(4-sulfophenyl)-2H-tetrazolium, inner salt) is an aqueous compound that is reduced to soluble formazan by the presence of NADH formed by dehydrogenases present within the Jurkat cells. The absorbance of the formazan can be measured at 490 nm and is directly proportional to the number of living cells present in the culture. PMS (Phenazine Methosulfate) is added an electron coupling reagent and greatly increases the rate of reduction. […]
In order to establish the accuracy of this assay a Positive Control consisting of 50 μM Methotrexate should […] the net absorbance to less than 90% of the Negative Control (Jurkat cells are somewhat resistant to methotrexate) is utilized.

[3] = Solubility in organic solvents; format: physicochemical
[4] = Stability in solutions; format: physicochemical; conditions: solution heated or stored for a long time; forms OF-12

Nc1ccn([C@@H]2O[C@H](CO)[C@@H](O)[C@@H]2O)c(=O)n1 [cytarabine]
toxicity in mice LD50 [1]: 826 mg/kg

CCOc1ccc(C(=O)CC(O)(NN=C2c3ccccc3-c3ccccc32)C(=O)OC)cc1 (stereo not shown) [OF-13, 4-(4-Ethoxy-phenyl)-2-(N′-fluoren-9-ylidene-hydrazino)-2-hydroxy-4-oxo-butyric acid methyl ester]
percent activity against human leukemia [2]: 97%
Solubility ([3]; in DMSO, DMFA, dichloroethane, acetonitrile): highly soluble
Solubility ([3]; in hexane): insoluble
Stability in solutions [4]: not stable in solutions and decomposes quickly

COc1cccc2c1C(=O)c1c(O)c3c(c(O)c1C2=O)C[C@@](O)(C(C)=O)C[C@@H]3O[C@H]1C[C@H](N)[C@H](O)[C@H](C)O1 [daunorubicin]
toxicity in mice LD50 [1]: 26 mg/kg

CCOc1ccc(C(Cl)=CC(=NN=C2c3ccccc3-c3ccccc32)C(=O)OC)cc1 [3F-19, 4-Chloro-4-(4-ethoxy-phenyl)-2-(fluoren-9-ylidene-hydrazono)-but-3-enoic acid methyl ester]
percent activity against human leukemia [2]: 100%

Source: patent publication US7049461B1, “Treatment of leukemia” (University of Central Florida, priority 2001, dated 2006)
